Measured values from patent US6818407B2, “Anti-endotoxic antimicrobial cationic peptides and methods of use therfor” (priority 1998, dated 2004).

Columns and labels:
[1] = system: Pseudomonas aeruginosa strain M2; assay: Protection of neutropenic CD-1 mice challenged with Pseudomonas aeruginosa; format: in vivo; parameters: Survival post bacterial challenge, surviving mice: reference not given here; conditions: for Survival (%) post bacterial challenge: PBS 8
Summary of the method: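 Neutropenia induced by three i.p. cyclophosphamide doses ([…], alternate days); mice then infected i.p. with 200-300 organisms/mouse. Peptides (200 µg/mouse = 8 mg/kg) in buffered citrate given i.p. at 30 min (single) or 30 min and 16 hrs (double) post-challenge; PBS control; mean of 2 experiments.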

[2] = system: E. coli; assay: MIC, broth microdilution assay in polypropylene microtiter trays; format: cell-based; conditions: average of three separate experiments
Summary of the method: (§1)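 Read-out: OD. MIC = lowest peptide conc. giving no OD change over the defined time.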

[3] = system: S. epidermis; assay: as above; format: cell-based; conditions: average of three separate experiments
Summary of the method: as §1

[4] = system: S. aureus K147; assay: as above; format: cell-based; conditions: average of three separate experiments
Summary of the method: as §1

[5] = system: S. aureus; assay: as above; format: cell-based; conditions: average of three separate experiments
Summary of the method: as §1

[6] = system: P. aeruginosa; assay: as above; format: cell-based; conditions: average of three separate experiments
Summary of the method: as §1

[7] = system: E. coli; assay: Synergy study (checkerboard titration) with hen white lysozyme; format: cell-based; conditions: for Lowest [CP] showing synergy: cationic peptide concentration, combined with lysozyme; for Lowest [Lyso] showing synergy: lysozyme concentration, combined with the peptide
[8] = system: Salmonella typhi; assay: as above; format: cell-based; conditions: for Lowest [CP] showing synergy: cationic peptide concentration, combined with lysozyme; for Lowest [Lyso] showing synergy: lysozyme concentration, combined with the peptide
[9] = system: P. aeruginosa (H103); assay: as above; format: cell-based; conditions: for Lowest [CP] showing synergy: cationic peptide concentration, combined with lysozyme; for Lowest [Lyso] showing synergy: lysozyme concentration, combined with the peptide
[10] = system: mutant (Nal B, H744) of P. aeruginosa; assay: microbe, parasite or virus in culture; format: cell-based; conditions: for (B) MIC of Cipro when combined with peptide: ciprofloxacin with peptide at concentration (A); for (B) MIC of Cipro when combined with peptide / FIC index / (A) Peptide doses together with Cipro: Nal B, H744; for FIC index: peptide + ciprofloxacin; for MIC A MIC of Peptides: peptide alone, P. aeruginosa mutant Nal B, H744 (Table 5); for (A) Peptide doses together with Cipro: peptide concentration in combination with ciprofloxacin
Summary of the method: (§2)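 Checkerboard titration in Mueller Hinton broth, peptide against carbenicillin or ciprofloxacin, inoculum 10 μl of 10^−4 dilution of overnight culture, 18-24 h at 37 °C. Combination MIC is the lowest concentration reducing growth >50%. FIC index = A/MIC A + B/MIC B, with ≤~0.5 synergy, 1.0 additivity, >1.0 antagonism.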

[11] = system: β-lactamase derepressed mutant (H547) of P. aeruginosa; assay: microbe, parasite or virus in culture; format: cell-based; conditions: P. aeruginosa H547; for (B) MIC of Carb when combined with peptide: Carbenicillin with peptide at concentration (A); for MIC A MIC of Peptides: peptide alone; for (A) Peptide doses together with Carb: peptide concentration in combination with Carbenicillin
Summary of the method: as §2

[12] = double dose (200 μg per mouse i.p. at 30 min and 16 hrs), 16 hr
[13] = single dose (200 μg per mouse i.p. at 30 min), 16 hr

## CC[C@H](C)[C@H](NC(=O)CNC(=O)[C@@H](NC(=O)[C@H](CCCCN)NC(=O)[C@H](CCCCN)NC(=O)[C@H](Cc1ccccc1)NC(=O)[C@H](CC(C)C)NC(=O)[C@H](CCCCN)NC(=O)[C@H](Cc1c[nH]c2ccccc12)NC(=O)[C@@H](N)CCCCN)[C@@H](C)CC)C(=O)NCC(=O)N[C@@H](C)C(=O)N[C@H](C(=O)N[C@@H](CC(C)C)C(=O)N[C@@H](CCCCN)C(=O)N[C@H](C(=O)N[C@@H](CC(C)C)C(=O)N[C@@H](CCCCN)C(=O)N[C@H](C(=O)N[C@@H](CC(C)C)C(=O)N[C@H](C(=O)N[C@H](C(=O)NCC(=O)N[C@@H](CC(C)C)C(=O)N1CCC[C@H]1C(=O)N[C@@H](C)C(=O)N[C@@H](CC(C)C)C(=O)N[C@@H](CCCCN)C(=O)N[C@@H](CC(C)C)C(=O)N[C@H](C(=O)N[C@@H](CC(C)C)C(=O)N[C@@H](CCCCN)C(=O)O)[C@@H](C)O)[C@@H](C)O)[C@@H](C)O)C(C)C)C(C)C)C(C)C [CM4]
[1]; [12]
  Survival post bacterial challenge, surviving mice: 14
[1]; double dose, 24 hr
  Survival post bacterial challenge, surviving mice: 14
[1]; double dose, 41 hr
  Survival post bacterial challenge, surviving mice: 7
[1]; double dose, 48 hr
  Survival post bacterial challenge, surviving mice: 2
[1]; double dose, 64 hr
  Survival post bacterial challenge, surviving mice: 2
  Survival (%) post bacterial challenge: 14%
[1]; double dose, 72 hr
  Survival post bacterial challenge, surviving mice: 2
  Survival (%) post bacterial challenge: 14%
[1]; double dose, 96 hr
  Survival post bacterial challenge, surviving mice: 2
  Survival (%) post bacterial challenge: 14%
[1]; [13]
  Survival post bacterial challenge, surviving mice: 15
[1]; single dose, 24 hr
  Survival post bacterial challenge, surviving mice: 15
[1]; single dose, 41 hr
  Survival post bacterial challenge, surviving mice: 9
[1]; single dose, 48 hr
  Survival post bacterial challenge, surviving mice: 3
[1]; single dose, 64 hr
  Survival post bacterial challenge, surviving mice: 1
  Survival (%) post bacterial challenge: 6%
[1]; single dose, 72 hr
  Survival post bacterial challenge, surviving mice: 1
  Survival (%) post bacterial challenge: 6%
[1]; single dose, 96 hr
  Survival post bacterial challenge, surviving mice: 1
  Survival (%) post bacterial challenge: 16%
[2]
  MIC E. coli: 4 µg/mL
[3]
  MIC S. epidermis: 4 µg/mL
[4]
  MIC S. aureus K147: 8 µg/mL
[5]
  MIC S. aureus: 8 µg/mL
[6]
  MIC P. aeruginosa: 4 µg/mL
[7]
  FIC for combination of cationic peptide and lysozyme: 0.07
  Lowest [CP] showing synergy: 1.3 µg/mL
  Lowest [Lyso] showing synergy: 7.8 µg/mL
[8]
  FIC for combination of cationic peptide and lysozyme: 0.50
  Lowest [CP] showing synergy: 2.61 µg/mL
  Lowest [Lyso] showing synergy: 7.8 µg/mL
[9]
  FIC for combination of cationic peptide and lysozyme: 0.75
  Lowest [CP] showing synergy: 2.6 µg/mL
  Lowest [Lyso] showing synergy: 250 µg/mL
[10]
  (B) MIC of Cipro when combined with peptide: .125 µg/mL
  FIC index: .75
  MIC A MIC of Peptides: 4 µg/mL
  (A) Peptide doses together with Cipro: 1 µg/mL
[11]
  (B) MIC of Carb when combined with peptide: 64 µg/mL
  MIC A MIC of Peptides: 4 µg/mL
  (A) Peptide doses together with Carb: 1 µg/mL

## CC[C@H](C)[C@H](NC(=O)CNC(=O)[C@@H](NC(=O)[C@H](CCCCN)NC(=O)[C@H](CCCCN)NC(=O)[C@@H](NC(=O)[C@H](Cc1ccccc1)NC(=O)[C@H](CCCCN)NC(=O)[C@H](CCCCN)NC(=O)[C@H](Cc1c[nH]c2ccccc12)NC(=O)[C@@H](N)CCCCN)[C@@H](C)CC)[C@@H](C)CC)C(=O)NCC(=O)N[C@@H](C)C(=O)N[C@H](C(=O)N[C@@H](CC(C)C)C(=O)N[C@@H](CCCCN)C(=O)N[C@H](C(=O)N[C@@H](CC(C)C)C(=O)N[C@H](C(=O)N[C@H](C(=O)NCC(=O)N[C@@H](CC(C)C)C(=O)N1CCC[C@H]1C(=O)N[C@@H](C)C(=O)N[C@@H](CC(C)C)C(=O)N[C@@H](CCCCN)C(=O)N[C@@H](CC(C)C)C(=O)N[C@H](C(=O)N[C@@H](CCCCN)C(=O)N[C@@H](CCCCN)C(=O)O)[C@@H](C)O)[C@@H](C)O)[C@@H](C)O)C(C)C)C(C)C [CPα2]
[1]; [12]
  Survival post bacterial challenge, surviving mice: 13
[1]; double dose, 24 hr
  Survival post bacterial challenge, surviving mice: 13
[1]; double dose, 41 hr
  Survival post bacterial challenge, surviving mice: 12
[1]; double dose, 48 hr
  Survival post bacterial challenge, surviving mice: 9
[1]; double dose, 64 hr
  Survival post bacterial challenge, surviving mice: 6
  Survival (%) post bacterial challenge: 46%
[1]; double dose, 72 hr
  Survival post bacterial challenge, surviving mice: 6
  Survival (%) post bacterial challenge: 46%
[1]; double dose, 96 hr
  Survival post bacterial challenge, surviving mice: 5
  Survival (%) post bacterial challenge: 38%
[1]; [13]
  Survival post bacterial challenge, surviving mice: 15
[1]; single dose, 24 hr
  Survival post bacterial challenge, surviving mice: 15
[1]; single dose, 41 hr
  Survival post bacterial challenge, surviving mice: 13
[1]; single dose, 48 hr
  Survival post bacterial challenge, surviving mice: 13
[1]; single dose, 64 hr
  Survival post bacterial challenge, surviving mice: 13
  Survival (%) post bacterial challenge: 86%
[1]; single dose, 72 hr
  Survival post bacterial challenge, surviving mice: 12
  Survival (%) post bacterial challenge: 80%
[1]; single dose, 96 hr
  Survival post bacterial challenge, surviving mice: 12
  Survival (%) post bacterial challenge: 80%
[2]
  MIC E. coli: 2 µg/mL
[4]
  MIC S. aureus K147: 16 µg/mL
[5]
  MIC S. aureus: 16 µg/mL
[6]
  MIC P. aeruginosa: 6 µg/mL
[7]
  FIC for combination of cationic peptide and lysozyme: 0.31
  Lowest [CP] showing synergy: 0.65 µg/mL
  Lowest [Lyso] showing synergy: 7.8 µg/mL
[8]
  FIC for combination of cationic peptide and lysozyme: 0.63
  Lowest [CP] showing synergy: 2.61 µg/mL
  Lowest [Lyso] showing synergy: 125 µg/mL
[9]
  FIC for combination of cationic peptide and lysozyme: 0.56
  Lowest [CP] showing synergy: 10.4 µg/mL
  Lowest [Lyso] showing synergy: 62.5 µg/mL
[10]
  (B) MIC of Cipro when combined with peptide: .125 µg/mL
  FIC index: .75
  MIC A MIC of Peptides: 2 µg/mL
  (A) Peptide doses together with Cipro: 1 µg/mL
[11]
  (B) MIC of Carb when combined with peptide: 32 µg/mL
  MIC A MIC of Peptides: 2 µg/mL
  (A) Peptide doses together with Carb: 1 µg/mL
[11]; peptide + Carbenicillin, about 0.5 or less synergy, 1.0 additivity, >1.0 antagonism
  FIC index: 1.0
